Data as given in ChEMBL document CHEMBL1128970, “Synthesis and characterization of the second cysteine-rich region of mouse skin PKCGh” (Bioorg Med Chem Lett, 1996).

Legend:
[1] = target: T1, Protein kinase C gamma type (Rattus norvegicus, UniProt P63319); test: Inhibition of [3H]- PDBu binding to peptide C, rat brain PKC gamma
[2] = target: T2, Protein kinase C eta type (Mus musculus, UniProt P23298); test: Inhibition of [3H]- PDBu binding to peptide D of mouse skin Protein kinase C eta
[3] = target: T2, Protein kinase C eta type; test: Inhibition of [3H]- PDBu binding to peptide D of mouse skin Protein kinase C eta (inactive)
[4] = target: T1, Protein kinase C gamma type; test: Inhibition of [3H]- PDBu binding to peptide C, rat brain PKC gamma (inactive)

T2 sequence (P23298 whole entry): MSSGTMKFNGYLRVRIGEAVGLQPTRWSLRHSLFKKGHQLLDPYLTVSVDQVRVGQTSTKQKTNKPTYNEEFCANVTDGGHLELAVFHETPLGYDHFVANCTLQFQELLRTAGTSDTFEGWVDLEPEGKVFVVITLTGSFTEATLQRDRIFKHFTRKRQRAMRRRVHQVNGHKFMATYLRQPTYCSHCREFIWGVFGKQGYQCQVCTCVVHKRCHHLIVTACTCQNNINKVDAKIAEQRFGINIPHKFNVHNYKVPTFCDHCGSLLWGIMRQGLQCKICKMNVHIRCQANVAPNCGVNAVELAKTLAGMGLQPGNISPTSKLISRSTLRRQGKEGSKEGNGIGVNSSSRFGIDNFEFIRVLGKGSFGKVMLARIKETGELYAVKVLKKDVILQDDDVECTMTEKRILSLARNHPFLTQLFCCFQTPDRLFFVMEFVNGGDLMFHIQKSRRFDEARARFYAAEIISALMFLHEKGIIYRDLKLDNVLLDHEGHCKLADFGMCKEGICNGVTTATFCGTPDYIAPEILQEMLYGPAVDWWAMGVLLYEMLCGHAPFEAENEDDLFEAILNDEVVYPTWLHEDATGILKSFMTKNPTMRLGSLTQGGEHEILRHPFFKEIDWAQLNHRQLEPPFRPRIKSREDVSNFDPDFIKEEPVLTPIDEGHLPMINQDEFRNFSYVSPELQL

Row | Compound | Ki [1] [nM] | Ki [2] [nM] | Ki [3] | Ki [4]
1 | CCCC(=O)O[C@@H]1[C@@H](C)[C@@]2(O)[C@@H](C=C(CO)C[C@]3(O)C(=O)C(C)=C[C@@H]23)[C@@H]2C(C)(C)[C@]12OC(=O)CCC | 52.9 | 0.6 | – | –
2 | CCCCCCCCCC(=O)O[C@@H]1[C@@H](C)[C@@]2(O)[C@@H](C=C(CO)C[C@@]3(O)C(=O)C(C)=C[C@@H]23)[C@@H]2C(C)(C)[C@]12OC(=O)CCCCCCCCC | – | – | Not Active | Not Active
3 | C=C[C@@]1(C)CC[C@](C)(C(C)C)c2cc3c4c(c[nH]c4c21)C[C@@H](CO)NC(=O)[C@H](C(C)C)N3C | 2 | 0.1 | – | –
4 | CCCCCCCC(=O)OCC(CO)OC(=O)CCCCCCC (configuration not stated) [MONOCTANOIN COMPONENT C] | – | 14.5 | – | –
